Measured values: PubChem BioAssay (NCI)
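Compound exposure: 48 hours, 5 concentrations, 96-well plates. Here, GI50 denotes the concentration required for 50% inhibition of growth. The concentration for full growth arrest is given as TGI.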

Tests used:
Experiment in all cases: growth of human tumour cells (NCI), 48 h
[1] = tested on: K-562 leukemia
[2] = tested on: OVCAR-8 ovarian
[3] = tested on: T-47D breast
[4] = tested on: CCRF-CEM leukemia
[5] = tested on: HCC-2998 colon
[6] = tested on: HCT-116 colon
[7] = tested on: RXF 393 renal
[8] = tested on: UACC-62 melanoma
[9] = tested on: HCT-15 colon
[10] = tested on: MALME-3M melanoma
[11] = tested on: UO-31 renal
[12] = tested on: OVCAR-4 ovarian
[13] = tested on: NCI-H226 lung
[14] = tested on: TK-10 renal
[15] = tested on: SF-268 CNS
[16] = tested on: COLO 205 colon
[17] = tested on: RPMI-8226 leukemia
[18] = tested on: MCF7 breast
[19] = tested on: NCI-H460 lung
[20] = tested on: SN12C renal
[21] = tested on: NCI-H23 lung
[22] = tested on: SR leukemia
[23] = tested on: OVCAR-5 ovarian
[24] = tested on: SK-MEL-5 melanoma
[25] = tested on: HOP-62 NSCLC
[26] = tested on: HOP-92 NSCLC
[27] = tested on: HS 578T breast
[28] = tested on: MOLT-4 leukemia
[29] = tested on: PC-3 prostate
[30] = tested on: SK-OV-3 ovarian
[31] = tested on: SK-MEL-2 melanoma
[32] = tested on: A549 NSCLC
[33] = tested on: U251 CNS
[34] = tested on: IGROV1 ovarian
[35] = tested on: NCI-H522 lung
[36] = tested on: OVCAR-3 ovarian
[37] = tested on: NCI/ADR-RES ovarian
[38] = tested on: SK-MEL-28 melanoma
[39] = tested on: MDA-MB-435
[40] = tested on: M14 melanoma
[41] = tested on: SF-295 CNS
[42] = tested on: A498 renal
[43] = tested on: LOX IMVI melanoma
[44] = tested on: ACHN renal
[45] = tested on: DU-145 prostate
[46] = tested on: 786-0 renal
[47] = tested on: SNB-19 CNS
[48] = tested on: KM12 colon
[49] = tested on: CAKI-1 renal
[50] = tested on: UACC-257 melanoma
[51] = tested on: HL-60(TB) leukemia
[52] = tested on: SW-620 colon
[53] = tested on: HT29 colon
[54] = tested on: SNB-75 CNS
[55] = tested on: MDA-MB-231 breast

Compound: CC(C)CNc1nc(-c2ccccc2)nc2ccccc12
- GI50 [1]: 11.1 µM
- TGI [1]: 30.8 µM
- GI50 [2]: 15 µM
- TGI [2]: 31.8 µM
- GI50 [3]: 21.6 µM
- TGI [3]: > 100 µM
- GI50 [4]: 15.3 µM
- TGI [4]: 36.6 µM
- GI50 [5]: 15.9 µM
- TGI [5]: 29.8 µM
- GI50 [6]: 13.8 µM
- TGI [6]: 26.7 µM
- GI50 [7]: 12.7 µM
- TGI [7]: 31.8 µM
- GI50 [8]: 14.6 µM
- TGI [8]: 29.4 µM
- GI50 [9]: > 100 µM
- TGI [9]: > 100 µM
- GI50 [10]: 13.4 µM
- TGI [10]: 26.4 µM
- GI50 [11]: 17.3 µM
- TGI [11]: 50.5 µM
- GI50 [12]: 13.5 µM
- TGI [12]: 30 µM
- GI50 [13]: 16.9 µM
- TGI [13]: 35 µM
- GI50 [14]: 13.6 µM
- TGI [14]: 26.6 µM
- GI50 [15]: 18.3 µM
- TGI [15]: 37.4 µM
- GI50 [16]: 14.8 µM
- TGI [16]: 40.3 µM
- GI50 [17]: 4.31 µM
- TGI [17]: 20.3 µM
- GI50 [18]: 18.6 µM
- TGI [18]: 44.4 µM
- GI50 [19]: 17.2 µM
- TGI [19]: 41.1 µM
- GI50 [20]: 18.4 µM
- TGI [20]: 38.6 µM
- GI50 [21]: 17 µM
- TGI [21]: 34.5 µM
- GI50 [22]: 10.1 µM
- TGI [22]: 30.9 µM
- GI50 [23]: 17.4 µM
- TGI [23]: 32.2 µM
- GI50 [24]: 15.2 µM
- TGI [24]: 29 µM
- GI50 [25]: 17.7 µM
- TGI [25]: 31.5 µM
- GI50 [26]: 12.3 µM
- TGI [26]: 28.6 µM
- GI50 [27]: 16.5 µM
- TGI [27]: 33.9 µM
- GI50 [28]: 13.7 µM
- TGI [28]: 38.1 µM
- GI50 [29]: 17.1 µM
- TGI [29]: 34.8 µM
- GI50 [30]: 15.3 µM
- TGI [30]: 31.3 µM
- GI50 [31]: 29.6 µM
- TGI [31]: > 100 µM
- GI50 [32]: 15.1 µM
- TGI [32]: 31.8 µM
- GI50 [33]: 12.2 µM
- TGI [33]: 24.8 µM
- GI50 [34]: 27.4 µM
- TGI [34]: > 100 µM
- GI50 [35]: 26.3 µM
- TGI [35]: > 100 µM
- GI50 [36]: 15.7 µM
- TGI [36]: 31 µM
- GI50 [37]: 13.4 µM
- TGI [37]: 31.4 µM
- GI50 [38]: 17.3 µM
- TGI [38]: 32.7 µM
- GI50 [39]: 18.5 µM
- TGI [39]: 37.9 µM
- GI50 [40]: 13.5 µM
- TGI [40]: 26.4 µM
- GI50 [41]: 14.5 µM
- TGI [41]: 28.9 µM
- GI50 [42]: 15.1 µM
- TGI [42]: 29.5 µM
- GI50 [43]: 14.7 µM
- TGI [43]: 28.3 µM
- GI50 [44]: 16 µM
- TGI [44]: 29.5 µM
- GI50 [45]: 14.8 µM
- TGI [45]: 28.2 µM
- GI50 [46]: 14.4 µM
- TGI [46]: 27.5 µM
- GI50 [47]: 19.2 µM
- TGI [47]: 39.6 µM
- GI50 [48]: 12.7 µM
- TGI [48]: 26.4 µM
- GI50 [49]: 15.4 µM
- TGI [49]: 29.8 µM

Compound: Nc1ccc2c3c(n(CCCCl)c(=O)c2c1)-c1cc2c(cc1C3=O)OCO2
- GI50 [1]: > 100 µM
- TGI [1]: > 100 µM
- GI50 [2]: > 100 µM
- TGI [2]: > 100 µM
- GI50 [3]: > 100 µM
- TGI [3]: > 100 µM
- GI50 [4]: > 100 µM
- TGI [4]: > 100 µM
- GI50 [50]: > 100 µM
- TGI [50]: > 100 µM
- GI50 [51]: > 100 µM
- TGI [51]: > 100 µM
- GI50 [5]: > 100 µM
- TGI [5]: > 100 µM
- GI50 [7]: 55.1 µM
- TGI [7]: > 100 µM
- GI50 [8]: > 100 µM
- TGI [8]: > 100 µM
- GI50 [9]: > 100 µM
- TGI [9]: > 100 µM
- GI50 [10]: 7.79 µM
- TGI [10]: > 100 µM
- GI50 [11]: 48.1 µM
- TGI [11]: > 100 µM
- GI50 [14]: > 100 µM
- TGI [14]: > 100 µM
- GI50 [52]: > 100 µM
- TGI [52]: > 100 µM
- GI50 [15]: > 100 µM
- TGI [15]: > 100 µM
- GI50 [16]: > 100 µM
- TGI [16]: > 100 µM
- GI50 [17]: > 100 µM
- TGI [17]: > 100 µM
- GI50 [19]: 0.14 µM
- TGI [19]: > 100 µM
- GI50 [20]: > 100 µM
- TGI [20]: > 100 µM
- GI50 [21]: 0.562 µM
- TGI [21]: 25.8 µM
- GI50 [22]: 0.0268 µM
- TGI [22]: > 100 µM
- GI50 [23]: > 100 µM
- TGI [23]: > 100 µM
- GI50 [24]: 0.12 µM
- TGI [24]: 0.714 µM
- GI50 [26]: > 100 µM
- TGI [26]: > 100 µM
- GI50 [53]: > 100 µM
- TGI [53]: > 100 µM
- GI50 [54]: > 100 µM
- TGI [54]: > 100 µM
- GI50 [28]: 2.14 µM
- TGI [28]: > 100 µM
- GI50 [29]: > 100 µM
- TGI [29]: > 100 µM
- GI50 [30]: > 100 µM
- TGI [30]: > 100 µM
- GI50 [31]: > 100 µM
- TGI [31]: > 100 µM
- GI50 [32]: 7.75 µM
- TGI [32]: > 100 µM
- GI50 [33]: > 100 µM
- TGI [33]: > 100 µM
- GI50 [34]: 0.177 µM
- TGI [34]: > 100 µM
- GI50 [36]: > 100 µM
- TGI [36]: > 100 µM
- GI50 [55]: 60.1 µM
- TGI [55]: > 100 µM
- GI50 [37]: > 100 µM
- TGI [37]: > 100 µM
- GI50 [38]: > 100 µM
- TGI [38]: > 100 µM
- GI50 [39]: > 100 µM
- TGI [39]: > 100 µM
- GI50 [41]: 0.349 µM
- TGI [41]: > 100 µM
- GI50 [43]: > 100 µM
- TGI [43]: > 100 µM
- GI50 [44]: > 100 µM
- TGI [44]: > 100 µM
- GI50 [47]: > 100 µM
- TGI [47]: > 100 µM
- GI50 [48]: 41.6 µM
- TGI [48]: > 100 µM
- GI50 [49]: 1.03 µM
- TGI [49]: > 100 µM
